# Measured values as given in ChEMBL document CHEMBL1133888, “Development and in vitro efficacy of novel MMP2 and MMP9 specific doxorubicin albumin conjugates” (Bioorg Med Chem Lett, 2001).
# Experiment: Inhibitory effect against murine renal cell carcinoma cell line (RENCA cells) using a BrdU-incorporation assay
# Type: functional, cell-based
# Settings: Mus musculus
structure (smiles),measurement,value
COc1cccc2c1C(=O)c1c(O)c3c(c(O)c1C2=O)C[C@@](O)(C(=O)CO)C[C@@H]3O[C@H]1C[C@H](N)[C@H](O)[C@H](C)O1 [DOXORUBICIN],IC50,< 0.01 µM
